This is an account of results in publication PMC6315395, “New Lipophenol Antioxidants Reduce Oxidative Damage in Retina Pigment Epithelial Cells” (Antioxidants, 2018).

In data set [1] the test system is porcine primary RPE cells. Details: method as in PMID 27992460. Particulars: at 20 µM; cited from earlier work.
For the next data set, the system named is Abca4 −/− Rdh8 −/− mice. On the set-up: method as in PMID 27992460. Particulars: treated orally for three months; cited from earlier work.
The test system of data set [2] is Balb-c male mice photoreceptors. Details: method as in PMID 29541735. Particulars: cited from earlier work.
The test system of another data set is RPE cells. Particulars: 100 µM; cited from earlier work.
A short description of data set [3]: Cytotoxicity of lipophenols (MTT cell viability, 24 h). In kind it is cell-based, human. Particulars: human, ARPE-19 cells; for CC50 at 24 h: serum free medium, 0–160 µM, MTT, mean ± SD, n ≥ 3, read-out: ARPE-19 CC50 (concentration of lipophenol killing 50% of ARPE-19 cells). On the procedure:
(§1) Cell viability was determined by MTT colorimetric assay. The cells were incubated for 2 h with MTT reagent (0.5 mg/mL). During this incubation time, dehydrogenases of the living cells reduce the MTT to insoluble purple formazan. The absorbance at 570 nm and 655 nm of individual wells of the cell was measured using a microplate reader (BioRad 550, USA). […] The percentage of the viable cells was calculated as [(OD570 sample − OD655 sample)/(OD570 control − OD655 control)] × 100%.
(§2) ARPE-19 cells were plated into 96-well plates (4 × 10^4 cells/well) and cultured for 24 h to reach confluence before lipophenol treatment. The cell cultures were treated with serum free medium containing the lipophenols at different concentrations (0–160 µM) for 24 h. Control cells were incubated with DMSO (0.2%). The viability of the cells was determined using MTT colorimetric assay as described above and expressed in percentage of viable cells normalized with control conditions in the absence of lipophenols. When a dose-dependent toxicity was observed, CC50 was calculated.

For data set [4], the system named is ARPE-19 cells. The description is as above. Particulars: for Toxicity in ARPE-19 cells (in words): tested 0–160 µM. In kind it is cell-based, human. The method, then:
as §1, §2

In data set [5] the test system is ARPE-19 cells. Briefly: Protection against ROS production (DCFDA probe, H2O2 stress). It is filed as cell-based, human. Particulars: for IC50: H2O2 600 µM for 4 h, DCFDA, mean ± SD, n ≥ 3, read-out: ROS production IC50 (concentration needed to inhibit 50% of the ROS induced by H2O2). The method, then:
ROS activity was measured in ARPE-19 cells with dichlorofluorescein diacetate (DCFDA) reagent. DCFDA is deacetylated by cellular esterases to dichlorofluorescein (DCFH), which can then be oxidized by ROS into the fluorophore 2′,7′–dichlorofluorescein (DCF). ARPE-19 cells were plated into black, optically clear bottom 96-well plates (4 × 10^4 cells/well) and cultured for 24 h to reach confluence before the drug treatment. The cell cultures were incubated with 2 µM of DCFDA for 45 min in DMEM/F12 medium without phenol red + 1% FBS. The cells were rinsed and incubated with the medium containing lipophenols at different concentrations (0–80 µM) for 1 h. Then, H2O2 was added to a final concentration of 600 µM for 4 h, followed by the measurement of DCF production by fluorescence spectroscopy with excitation wavelength at 485 nm and emission wavelength at 535 nm. […] Control cells were incubated with DMSO (0.2%) ± DCFDA ± H2O2. The percentage of ROS produced was calculated as [(fluorescence of sample)/(fluorescence of control)] × 100%. The results are expressed in percentage of ROS produced normalized with control conditions in the absence of lipophenol and presence of stressor. When a dose-dependent inhibition was observed, IC50 was calculated.

Data set [6] concerns ARPE-19 cells. In words: Protection against photo-oxidized A2E toxicity (MTT cell viability). It is filed as cell-based, human. Particulars: for IC50: 1 h pre-treatment, A2E 20 µM 6 h, blue light 30 min, mean ± SD, n ≥ 3, read-out: Protection against A2E toxicity IC50 (concentration needed to inhibit 50% of the toxicity induced by photo-oxidized A2E); for Decrease of the toxic effect of A2E: at 8 µM; for Cells protected from photo-oxidized A2E: at higher concentrations; for Maximum cell viability under photo-oxidized A2E: between 20 and 40 µM; for Potency against photo-oxidized A2E relative to natural quercetin: ratio of IC50. On the procedure: as §1
ARPE-19 cells were plated into 96-well plates (4 × 10^4 cells/well) and cultured for 24 h to reach confluence before lipophenol treatment. The cell cultures were treated with serum free DMEM/F12 medium without phenol red containing lipophenols at different concentrations (0–80 µM) for 1 h. Then A2E was added to a final concentration of 20 µM for 6 h before rinsing with medium. Control cells were incubated with DMSO (0.2%) with or without A2E. The cells were exposed to intense blue light (4600 LUX) for 30 min to induce phototoxicity of A2E and incubated at 37 °C. The cell viability was determined 16–20 h later using a MTT colorimetric assay. Results are expressed in percentage of viable cells normalized with control conditions in the absence of lipophenols and stressor. When a dose-dependent efficiency was observed, IC50 was calculated.

Data set [7] concerns ARPE-19 cells. On the set-up: method as in PMID 27659166. Particulars: 60 µM, cells treated twice for 3 days before A2E stress; cited from earlier work.
Where [8] appears, read: Homo sapiens, ARPE-19, 1 h pre-incubation.

Each structure is given as a SMILES string.

`CC(/C=C/C=C(C)/C=C/C(=O)O)=C\C=C\C=C(C)\C=C\C=C(C)\C=C\C(=O)O` (stereo in doubt) [Norbixin]: in data set [1], the “Protection against A2E illuminated” value is on record as 90–100%. Also, the “Effect on A2E in mice (in words)” value in the data set with Abca4 −/− Rdh8 −/− mice is on record as “able to reduce A2E”.

With `O=c1c(O[C@@H]2OC[C@H](O)[C@H](O)[C@H]2O)c(-c2ccc(O)c(O)c2)oc2cc(O)cc(O)c12` [3-quercetin glycoside, Quercetin-3-O-α-L-arabinopyranoside], in [2], the “Protection of photoreceptors against blue light damages (in words)” value was “protect”. The “Cell viability of RPE cells” value in the data set on RPE cells is recorded as ~ 90%.

With `Oc1cc(O)c2c(c1)O[C@H](c1ccc(O)c(O)c1)[C@@H](O)C2` [(+)-catechin, reference compound], the CC50 at 24 h in data set [3] was greater than 160 µM. In the data set on ARPE-19 cells [4] (24 h), the “Toxicity in ARPE-19 cells (in words)” value is “no apparent toxicity”. The IC50 in the data set with ARPE-19 cells [5] (setting [8]) was 5.93 ± 0.06 µM.

As for `CCCCC/C=C\C/C=C\CCCCCCCC(=O)O[C@H]1Cc2c(O)cc(O)cc2O[C@@H]1c1ccc(O)c(O)c1` [Cat-3-LA (9), catechin-3-LA], the CC50 at 24 h in data set [3] came out at 149 ± 6.61 µM. Besides, the “Concentration from which cytotoxicity on ARPE-19 starts” value with ARPE-19 cells [4] (24 h, MTT) is reported as no less than 80 µM. Further, the IC50 in the data set on ARPE-19 cells [5] (setting [8]) was 10.6 ± 4.41 µM.

On to `CCCCC/C=C\C/C=C\CCCCCCCC(=O)Oc1cc(O)cc(O)c1` [Phloro-LA (3), Phloroglucinol-LA], for which the CC50 at 24 h in [3] was greater than 160 µM. Further, the IC50 in the data set on ARPE-19 cells [5] (setting [8]) is greater than 80 µM. In addition, in the data set on ARPE-19 cells [5] (ratio of ROS IC50), the “ROS scavenging potency relative to natural homologue (phloroglucinol)” value was “nine times less potent”.

As to `Oc1cc(O)cc(O)c1` [Phloroglucinol, phloroglucinol, reference compound], the CC50 at 24 h in data set [3] is greater than 160 µM. In addition, the IC50 in the data set on ARPE-19 cells [5] (setting [8]) turned out to be 10.2 ± 3.44 µM.

For the compound `CC/C=C\C/C=C\C/C=C\CCCCCCCC(=O)Oc1c(-c2ccc(O)c(O)c2)oc2cc(O)cc(O)c2c1=O` [Quer-3-ALA (14), quercetin-3-ALA], the melting point came out at 180 °C. Further, the CC50 at 24 h in data set [3] turned out to be 69.4 ± 3.46 µM. The IC50 with ARPE-19 cells [5] (1 h pre-incubation) is 61.7 ± 7.43 µM. The IC50 in the data set on ARPE-19 cells [5] (setting [8]) is roughly 60 µM.

With `CC/C=C\C/C=C\C/C=C\C/C=C\C/C=C\C/C=C\CCC(=O)Oc1c(-c2ccc(O)c(O)c2)oc2cc(O)cc(O)c2c1=O` [Quer-3-DHA (15)], in data set [3], the CC50 at 24 h amounted to 134 ± 8.09 µM. In addition, in the data set with ARPE-19 cells [4] (24 h), the “Toxicity in ARPE-19 cells (in words)” value was “slight toxicity”. The IC50 in the data set with ARPE-19 cells [5] (1 h pre-incubation) is 59.4 ± 18.8 µM; with ARPE-19 cells [5] (setting [8]), roughly 60 µM.

On to `CCCCC/C=C\C/C=C\CCCCCCCC(=O)Oc1c(-c2ccc(O)c(O)c2)oc2cc(O)cc(O)c2c1=O` [Quer-3-LA (13), quercetin-3-LA], for which, in data set [3], the CC50 at 24 h was greater than 160 µM. In addition, the “Cell survival in cytotoxicity assay” value in the data set with ARPE-19 cells [4] (at 80 µM, Figure 8, 100% = non-treated control cells) was found to be 150%. In addition, in the data set with ARPE-19 cells [4] (24 h), the “Toxicity in ARPE-19 cells (in words)” value is given as “no toxicity was observed up to 160 µM”. The IC50 in the data set on ARPE-19 cells [5] (1 h pre-incubation) amounted to 52.2 ± 10.8 µM. In the data set with ARPE-19 cells [5] (setting [8]), the IC50 was roughly 60 µM. Also, the IC50 in the data set with ARPE-19 cells [6] (Homo sapiens, ARPE-19) is 8.24 µM. Besides, in the data set with ARPE-19 cells [6], the “Decrease of the toxic effect of A2E” value came out at 50%, the “Cells protected from photo-oxidized A2E” value is listed as “up to 90%”, the “Maximum cell viability under photo-oxidized A2E” value is recorded as 88–89% and the “Potency against photo-oxidized A2E relative to natural quercetin” value is reported as “three times more potent”.

For `CC/C=C\C/C=C\C/C=C\CCCCCCCC(=O)Oc1cc(O)c2c(=O)c(O)c(-c3ccc(O)c(O)c3)oc2c1` [Quer-7-ALA (18), quercetin-7-ALA], the melting point stood at 235.8 °C. The CC50 at 24 h in [3] is greater than 160 µM. In addition, in [3] (up to 160 µM, Figure 8, 100% = non-treated control cells), the viability at 24 h turned out to be 128%. Besides, the IC50 in the data set with ARPE-19 cells [5] (setting [8]) was found to be 9.44 ± 2.37 µM. The “ROS scavenging potency relative to analogue 3-ALA” value with ARPE-19 cells [5] (ratio of ROS IC50) is recorded as 6 times. In addition, the IC50 in the data set with ARPE-19 cells [6] (Homo sapiens, ARPE-19) came out at 8.45 µM. Further, in the data set on ARPE-19 cells [6], the “Decrease of the toxic effect of A2E” value came out at 50%, the “Cells protected from photo-oxidized A2E” value is “up to 90%”, the “Maximum cell viability under photo-oxidized A2E” value is on record as 88–89% and the “Potency against photo-oxidized A2E relative to natural quercetin” value was “three times more potent”.

As to `O=c1c(O)c(-c2ccc(O)c(O)c2)oc2cc(O)cc(O)c12` [Quercetin, quercetin, reference compound], in [3], the CC50 at 24 h is 111 ± 4.92 µM. Besides, the “Toxicity in ARPE-19 cells (in words)” value with ARPE-19 cells [4] (24 h) is “moderate toxicity”. Besides, the IC50 stood at 6.82 ± 0.73 µM in the data set on ARPE-19 cells [5] (setting [8]) and 23.9 µM with ARPE-19 cells [6] (Homo sapiens, ARPE-19). The viability at 40 µM in the data set on ARPE-19 cells [6] (Homo sapiens, ARPE-19, at 40 µM, read-out: Maximum cell viability under photo-oxidized A2E) was determined as 78%.

As for `CCCCC/C=C\C/C=C\CCCCCCCC(=O)Oc1ccc(/C=C/c2cc(O)cc(O)c2)cc1` [Resv-4′-LA (8), resveratrol-4′-LA], the CC50 at 24 h in data set [3] was greater than 160 µM. Moreover, in the data set on ARPE-19 cells [5] (setting [8]), the IC50 is greater than 80 µM. For the same compound, the ROS scavenged with ARPE-19 cells [5] (at 80 µM, Figure S1) was found to be 40%.

As to `Oc1ccc(C=Cc2cc(O)cc(O)c2)cc1` [Resveratrol, 3,4′,5-trihydroxystilbene, reference compound], the CC50 at 24 h in [3] was greater than 160 µM. Further, the IC50 in the data set with ARPE-19 cells [5] (setting [8]) came out at 7.4 ± 0.51 µM. For the same compound, in the data set on ARPE-19 cells [7], the “Protection against photo-oxidized A2E (in words, compared with 88–89% cell viability)” value is “Same level of protection”.

Regarding `Oc1cc(O)cc(/C=C/c2ccc(O)c(O)c2)c1` [piceatannol], the “Protection against photo-oxidized A2E (in words, compared with 88–89% cell viability)” value in the data set on ARPE-19 cells [7] is “Same level of protection”.

The melting point is the temperature of the solid-liquid transition. In general, viability refers to a read-out of living cells in per cent, often relative to untreated cells.
